{"source": "patent US8785388B2", "about": "“TAT-BH3 methods for treating arthritis” (Saint Louis University, priority 2007, dated 2014)", "format_in_all_cases": "in vivo, mice", "key": {"[1]": {"system": "mature neutrophils in bone marrow", "experiment": "Bone marrow neutrophil numbers (flow cytometry)", "conditions": "as compared to saline and TAT-inactive BH3", "method": "(§1) Peripheral blood and bone marrow were isolated from mice following euthanasia. Total leukocyte numbers were determined using an automated hematology analyzer ABX Pentra 60 (Diamond Diagnostics, Inc, Holliston, Mass.). The red blood cells in peripheral blood were lysed and the remaining cells were fixed with BD FACS lysing solution (BD Biosciences, Pharmingen) following incubation with antibodies. Bone marrow cells were isolated by flushing Dulbecco's Modified Eagle Medium (DMEM) (Gibco, Grand Island, N.Y.) through the tibias and red blood cells were lysed with BD PharM Lyse (BD Biosciences, Pharmingen) prior to incubation with antibodies. Cells with incubated with Fc Block (BD Biosciences, Pharmingen) then stained with fluorochrome conjugated antibodies to CD45, CD11b, Gr-1, CD62L, Ly-6C, Ly-6G, CD31 (BD Biosciences, Pharmingen) or isotype control antibodies for 30 minutes. Cells were acquired on a BD LSRII (BD Biosciences, Pharmingen) using Diva Software at the Saint Louis University Core Flow Cytometry Facility. All analysis was performed using FlowJo software (Tree Star Inc.).\nTAT-BH3 peptides decrease the number of neutrophils in circulation and in bone marrow. We have shown that numbers of neutrophils and macrophages are reduced in the joints of mice treated with TAT-BH3 peptides."}, "[2]": {"system": "peripheral blood cells", "experiment": "Peripheral blood cell counts (flow cytometry, hematology analyzer)", "method": "as §1\nPeripheral blood was isolated by cardiac sticks. Cells were blocked for 10 minutes with Fc block and then stained with anti-CD45, anti-CD19, anti-CD3, anti-CD4, anti-CDS, anti-CD11b, anti-Gr-1, and anti-CD62L antibodies for 30 minutes. Platelets and RBCs were determined on an automated hematology analyzer ABX Pentra 60. Following incubation with antibodies red blood cells were lysed and cells were fixed with Becton Dickenson FACS lysing solution."}, "[3]": {"system": "IL-1β, TNFα, MCP-1, KC", "experiment": "Circulating cytokine levels in serum", "conditions": "between saline, TAT-inactive BH3 and TAT-BH3 groups", "method": "(§2) At each time point and prior to euthanasia, the degree of arthritis as indicated by joint swelling was quantitated by measuring two perpendicular diameters of the ankles using a caliper (Lange Caliper: Cambridge Scientific Industries, Cambridge Mass.). Joint circumference was calculated using the geometric formula of ellipse circumference (2πX √(a^2+b^2)/2). Following euthanasia, serum was isolated from peripheral blood by cardiac stick and ankle joints were removed. One of the ankle joints was fixed in 10% neutral buffered formalin for 24 hours, decalcified in EDTA-decalcification buffer for two weeks, embedded in paraffin, and sectioned. The other ankle joint was placed in liquid nitrogen, grounded into a fine powder by mortal and pestle, digested in protein lysis buffer ([…], 0.5% NP-40, 50 mM Tris, and 2 mM EDTA) in the presence of phosphatase and protease inhibitors, and homogenized on ice for 20 seconds. To examine any toxicity due to systemic delivery of TAT-Bim peptides, alkaline phosphatase (ALP), […] (AST), alanine aminotransferase (ALT), and blood urea nitrogen levels were measured.\nTAT-BH3 peptides treatment reduces the numbers of myeloid cells in arthritic joints. […] To this end, the numbers of polymorphonuclear cell and macrophages in saline and BH3 peptide arthritic mice were quantified. […]"}, "[4]": {"system": "K/B×N serum transfer-induced arthritis", "experiment": "K/B×N serum transfer-induced arthritis, ankle circumference (joint swelling)", "conditions": "for reduction of development of arthritis: day 4", "description": "The seven-week-old progeny from homozygous KRN TCR transgenic mice (C57BL/6 background) crossed with non-obese diabetes (NOD) mice (K/B×N) were euthanized, peripheral blood was isolated, and serum were collected and pooled. One hundred and fifty microliters of K/B×N serum were intraperitoneally injected on each flank of 6-week old wt mice.\nas §2\nTherefore, peptides to the BH3 domain of Bim were used that are fused to polycationic peptide derived from HIV-1 TAT. These peptides have shown to activate Bak and Bax, suppress Bcl-2 and Mcl-1, induce mitochondrial permeability, and release mitochondrial cytochrome c. Mice were intraperitoneally injected with K/B×N serum to induce the effector phase of inflammatory arthritis."}, "[5]": {"system": "macrophages in arthritic joints", "experiment": "Macrophage numbers in ankle sections stained for F4/80 antigen", "description": "FIG. 4A is representative photomicrograph of ankle sections stained for F4/80 antigen from saline- and BH3-peptide treated mice.\nTAT-BH3 peptides treatment reduces the numbers of myeloid cells in arthritic joints. Neutrophils and macrophages are required for the development of K/B×N serum transfer induced arthritis 40-42. To this end, the numbers of polymorphonuclear cell and macrophages in saline and BH3 peptide arthritic mice were quantified. […] The milieu of the RA joint is crucial for the initiation and the perpetuation of inflammatory arthritis. Previous studies have shown that mice lacking Bim display increased levels of pro-inflammatory factors in the joint that is associated with increased numbers of neutrophils and macrophages and more articular destruction."}, "[6]": {"system": "K/B×N serum transfer-induced arthritis", "experiment": "Histopathological scoring of ankle sections (H&E, safranin O/methyl green)", "method": "Paraffin embedded ankle or liver sections were stained with hematoxylin and eosin (H&E), Safranin O and methyl green. Histopathological scoring was performed and ankle sections were evaluated by examining at least 3 sections/ankle and 3 fields/section at 400× magnification. H&E ankle sections were scored on a 0-5 scale for inflammation, with 0=normal, 1=minimal infiltration, 2=mild infiltration, 3=moderate infiltration, […], mad 5=severe infiltration. Bone erosion was scored on a 0-5 scale by viewing H&E ankle sections, with 0=no or normal bone resorption, 1=small areas of resorption, 2=more numerous areas of resorption, 3=obvious resorption, 4=full thickness defects in the bone without distortion of the profile, 5=full thickness defects in the bone with distortion of the profile. H&E ankle stained sections were scored on a 0-5 scale for pannus formation, with 0=no pannus formation, 1=minimal pannus formation, 2=mild pannus formation, 3=moderate pannus formation, 4=marked pannus formation, and 5=severe pannus formation. H&E and Safranin 0 and methyl green sections were scored on a 0-5 scale for cartilage damage, with 0=no damage, 1-2=superficial cartilage destruction, 3-4=cartilage destruction to middle zone, 5=cartilage destruction to tide mark. Polymorphonuclear (PMN) leukocyte infiltration: 0=no PMNs, 1=rare scattered PMNs, 2=more frequent scattered PMNs, 3=small clusters of PMNs, 4=larger clusters of PMNs, mad 5=sheets of PMNs (abscess). Histopathological scoring was conducted on an Olympus BX40 microscope (1000×). Photographs were taken on a Nikon microscope equipped with the Nikon digital camera DMX 1200.\nTo accurately assess the degree of inflammation and destruction of cartilage and bone, ankle sections were examined using a histopathological scoring system on hematoxylin and eosin (H& E) or safranin O-methyl green stained ankle sections."}, "[7]": {"conditions": "as compared to TAT-inactive BH3"}, "[8]": {"conditions": "as compared to TAT-inactive BH3 and saline"}, "[9]": {"conditions": "peripheral blood, hematology analyzer, mean ± standard error"}, "[10]": {"conditions": "peripheral blood, mean ± standard error"}, "[11]": {"conditions": "as compared to saline or TAT-inactive BH3"}}, "note": "Square brackets hold non-standard residues; d marks the D form. Peptide text beside a SMILES is read from it. Orn = NCCC[C@H](N)C(=O)O"}
{"smiles": "CC[C@H](C)[C@H](NC(=O)[C@H](CCCNC(=N)N)NC(=O)[C@H](CCCNC(=N)N)NC(=O)[C@H](CC(C)C)NC(=O)[C@H](CCC(=O)O)NC(=O)[C@H](CCC(N)=O)NC(=O)[C@H](C)NC(=O)[C@@H](NC(=O)[C@H](Cc1c[nH]c2ccccc12)NC(=O)[C@@H](NC(=O)[C@H](CCC(=O)O)NC(=O)[C@H](CCCNC(=N)N)NC(=O)[C@H](CCCNC(=N)N)NC(=O)[C@H](CCCNC(=N)N)NC(=O)[C@H](CCCN)NC(=O)[C@H](CCCNC(=N)N)NC(=O)[C@H](CCCNC(=N)N)NC(=O)[C@H](CCCCN)NC(=O)[C@H](CCCCN)NC(=O)[C@H](CCCNC(=N)N)NC(C)=O)[C@@H](C)CC)[C@@H](C)CC)C(=O)NCC(=O)N[C@@H](CC(=O)O)C(=O)N[C@@H](CCC(=O)O)C(=O)N[C@@H](Cc1ccccc1)C(=O)N[C@@H](CC(N)=O)C(=O)N[C@@H](C)C(=O)N[C@@H](Cc1ccc(O)cc1)C(=O)N[C@@H](Cc1ccc(O)cc1)C(=O)N[C@@H](C)C(=O)N[C@@H](CCCNC(=N)N)C(=O)O", "note": "[TAT-BH3] (Ac-RKKRR[Orn]RRREIWIAQELRRIGDEFNAYYAR-OH)", "values": [{"measurement": "decrease in numbers of mature neutrophils in bone marrow", "setting": "[1]", "value": 50, "unit": "%"}, {"measurement": "decrease in platelets", "setting": "[2]; [7]", "value": 29, "unit": "%"}, {"measurement": "number of circulating leukocytes", "setting": "[2]; [8]", "value": "did not reduce"}, {"measurement": "number of red blood cells", "setting": "[2]; [8]", "value": "did not reduce"}, {"measurement": "decrease in numbers of neutrophils in peripheral blood", "setting": "[2]; as compared to TAT-inactive peptide and saline", "value": 40, "unit": "%"}, {"measurement": "decrease in platelets", "setting": "[2]; as compared to saline", "value": 23, "unit": "%"}, {"measurement": "effect on platelet counts", "setting": "[2]; general statement", "value": "minimal effect"}, {"measurement": "Platelets", "setting": "[2]; [9]", "value": "930.3 ± 55.32 (1E6)"}, {"measurement": "RBCs", "setting": "[2]; [9]", "value": "9.60 ± 0.42 (1E6)"}, {"measurement": "B-cells+", "setting": "[2]; [10]", "value": "2.51 ± 0.11 (1E6)"}, {"measurement": "CD4+ T-cells", "setting": "[2]; [10]", "value": "1.25 ± 0.06 (1E6)"}, {"measurement": "CD8+ T-cells", "setting": "[2]; [10]", "value": "0.86 ± 0.04 (1E6)"}, {"measurement": "Inflammatory monocytes", "setting": "[2]; [10]", "value": "0.26 ± 0.03 (1E6)"}, {"measurement": "N-K-cells", "setting": "[2]; [10]", "value": "0.23 ± 0.02 (1E6)"}, {"measurement": "Resident Monocytes", "setting": "[2]; [10]", "value": "0.21 ± 0.02″ (1E6)"}, {"measurement": "T-cells", "setting": "[2]; [10]", "value": "2.20 ± 0.10 (1E6)"}, {"measurement": "Total Leukocytes", "setting": "[2]; [10]", "value": "6.2 ± 0.22 (1E6)"}, {"measurement": "circulating levels of IL-1β, TNFα, MCP-1, and KC in serum", "setting": "[3]", "value": "no differences"}, {"measurement": "change in ankle circumference", "setting": "[4]; day 2 after K/B×N serum, 2 mg/kg i.p.", "value": 0.1, "unit": "mm"}, {"measurement": "reduction of development of arthritis", "setting": "[4]; as compared to TAT-inactive BH3 peptide", "value": 72, "unit": "%"}, {"measurement": "reduction of development of arthritis", "setting": "[4]; as compared to saline", "value": 80, "unit": "%"}, {"measurement": "average number of macrophages in the synovial lining", "setting": "[5]; [7]", "value": "no statistical difference"}, {"measurement": "decrease in numbers of macrophages within the pannus region", "setting": "[5]; [7]", "value": 68, "unit": "%"}, {"measurement": "decrease in numbers of macrophages within the pannus region", "setting": "[5]; as compared to saline", "value": 77, "unit": "%"}, {"measurement": "reduction in PMN score", "setting": "[6]; as compared to TAT-inactive BH3 or saline", "value": 69, "unit": "%"}, {"measurement": "decrease in bone erosion score", "setting": "[6]; [11]", "value": 71, "unit": "%"}, {"measurement": "reduction in inflammation", "setting": "[6]; [11]", "value": 72, "unit": "%"}, {"measurement": "suppression of pannus formation", "setting": "[6]; [11]", "value": 79, "unit": "%"}]}
